# Active and inactive are the calls of the source.
# What was measured:
# Cytochrome P450 2D6 = Cytochrome P450 2D6 (Homo sapiens, UniProt P10635); test: qHTS Assay for Inhibitors and Substrates of Cytochrome P450 2D6. [Related pubchem assays: 410 ]; type: ADME; conditions: read-out: Potency
# Cytochrome P450 2C9 = Cytochrome P450 2C9 (Homo sapiens, UniProt P11712); conditions: Potency
# Streptococcus [1] = test: GAS UMAA2166 growth inhibition – luminescence, BacTiterGlo, counter-screen for streptokinase expression inhibitor project, dose response (AID 1915); type: functional, organism-based;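 note: potency for reduction of bacterial viability or growth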
# Streptococcus [2] = test: Luminescence Microorganism-Based Dose Response Follow up to Identify Compounds Cytotoxic to Streptococcus. [Related pubchem assays: 1677 (Project Summary), 1915, 1914, 1902 (Retest at Dose), 1900 (Counter Screen), 1662 (Primary HTS)]; type: functional, organism-based
# Streptokinase A = biological target: T1, Streptokinase A (Streptococcus pyogenes serotype M1, UniProt P10520); test: viability-normalized secreted streptokinase activity reduction – plasminogen activation absorbance, OD405, dose response (AID 1914); type: functional, Streptococcus pyogenes M1 GAS;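 note: secreted streptokinase activity via plasminogen activation per viability signal from cell pellet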
# T1 sequence (P10520 whole entry): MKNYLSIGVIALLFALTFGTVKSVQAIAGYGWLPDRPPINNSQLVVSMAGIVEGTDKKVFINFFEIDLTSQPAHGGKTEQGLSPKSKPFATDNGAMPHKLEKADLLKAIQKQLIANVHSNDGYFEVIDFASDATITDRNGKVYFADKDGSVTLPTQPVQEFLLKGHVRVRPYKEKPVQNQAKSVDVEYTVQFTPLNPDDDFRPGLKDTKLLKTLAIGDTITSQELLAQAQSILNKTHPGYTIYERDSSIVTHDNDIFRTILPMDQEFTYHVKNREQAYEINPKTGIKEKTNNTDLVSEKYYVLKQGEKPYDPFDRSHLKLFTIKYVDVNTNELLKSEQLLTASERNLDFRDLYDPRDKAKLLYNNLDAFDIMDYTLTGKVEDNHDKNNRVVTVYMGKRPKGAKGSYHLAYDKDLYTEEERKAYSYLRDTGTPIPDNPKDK
# [3] = test system: Streptococcus sp. 'group A'; test: Streptococcus pyogenes SK(-)GAS viability under kanamycin – luminescence, BacTiterGlo, confirmation, counter-screen for streptokinase expression inhibitor project, dose response (AID 1900); type: functional, organism-based
# Leucine aminopeptidase = biological target: T2, Leucine aminopeptidase (Plasmodium falciparum 3D7, UniProt Q8IL11); test: P. falciparum M17LAP inhibitors, primary screen, biochemical, fluorogenic H-Leu-NHMec substrate, 1536-well (AID 1619); type: functional
# T2 sequence (Q8IL11 whole entry): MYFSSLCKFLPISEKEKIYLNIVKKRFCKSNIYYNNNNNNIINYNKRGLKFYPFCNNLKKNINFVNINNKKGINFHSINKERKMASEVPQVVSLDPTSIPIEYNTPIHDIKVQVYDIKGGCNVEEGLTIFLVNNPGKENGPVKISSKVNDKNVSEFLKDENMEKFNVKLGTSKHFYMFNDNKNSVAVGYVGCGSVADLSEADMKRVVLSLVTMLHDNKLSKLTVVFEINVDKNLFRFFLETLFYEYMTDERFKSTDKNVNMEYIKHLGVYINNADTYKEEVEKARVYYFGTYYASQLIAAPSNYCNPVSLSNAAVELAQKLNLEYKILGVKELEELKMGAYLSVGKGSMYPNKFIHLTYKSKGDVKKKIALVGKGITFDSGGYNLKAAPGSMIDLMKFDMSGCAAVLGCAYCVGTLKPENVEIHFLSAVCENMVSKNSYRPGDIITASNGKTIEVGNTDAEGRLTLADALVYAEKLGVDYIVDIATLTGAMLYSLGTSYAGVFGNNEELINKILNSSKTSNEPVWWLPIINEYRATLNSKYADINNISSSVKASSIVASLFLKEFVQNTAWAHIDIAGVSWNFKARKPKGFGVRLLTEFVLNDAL
# [4] = biological target: T3, Neuropeptides B/W receptor type 1 (Homo sapiens, UniProt P48145); test: Fluorescence-based dose response cell-based high throughput screening assay to identify antagonists of the G-protein coupled receptor 7 (GPR7). [Related pubchem assays: 1952 (Screening assay (GPR7 antagonists).), 1880 (Summary AID.)]; type: functional
# T3 sequence (P48145 whole entry): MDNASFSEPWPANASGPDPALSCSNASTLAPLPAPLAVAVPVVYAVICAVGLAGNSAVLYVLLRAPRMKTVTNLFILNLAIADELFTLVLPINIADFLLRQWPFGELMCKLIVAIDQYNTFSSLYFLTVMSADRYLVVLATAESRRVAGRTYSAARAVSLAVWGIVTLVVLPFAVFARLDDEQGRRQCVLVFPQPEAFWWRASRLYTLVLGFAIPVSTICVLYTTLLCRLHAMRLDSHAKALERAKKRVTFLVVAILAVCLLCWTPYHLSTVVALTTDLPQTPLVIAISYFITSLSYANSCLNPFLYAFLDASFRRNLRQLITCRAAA
# [5] = biological target: Melanin-concentrating hormone receptor 1 (Homo sapiens, UniProt Q99705); test: Fluorescence-based counterscreen for antagonists of the G-protein coupled receptor 7 (GPR7): cell-based high throughput dose response assay to identify antagonists of the melanin-concentrating hormone receptor 1 (MCHR1).; type: functional
# [6] = biological target: Peroxisome proliferator-activated receptor gamma/Nuclear receptor coactivator 3 (Homo sapiens, UniProt P37231); type: functional;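 note: agonist potency for raising coactivator recruitment to the receptor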
# [7] = biological target: Peroxisome proliferator-activated receptor gamma/Nuclear receptor coactivator 1 (Homo sapiens, UniProt P37231); type: functional;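 note: agonist potency as compounds enhance coactivator SRC-1 recruitment to PPARgamma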
# [8] = biological target: Peroxisome proliferator-activated receptor gamma/Nuclear receptor coactivator 2 (Homo sapiens, UniProt P37231); type: functional;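 note: agonist potency for raising coactivator recruitment to the receptor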
# Cytochrome P450 2D6, sequence (P10635 whole entry): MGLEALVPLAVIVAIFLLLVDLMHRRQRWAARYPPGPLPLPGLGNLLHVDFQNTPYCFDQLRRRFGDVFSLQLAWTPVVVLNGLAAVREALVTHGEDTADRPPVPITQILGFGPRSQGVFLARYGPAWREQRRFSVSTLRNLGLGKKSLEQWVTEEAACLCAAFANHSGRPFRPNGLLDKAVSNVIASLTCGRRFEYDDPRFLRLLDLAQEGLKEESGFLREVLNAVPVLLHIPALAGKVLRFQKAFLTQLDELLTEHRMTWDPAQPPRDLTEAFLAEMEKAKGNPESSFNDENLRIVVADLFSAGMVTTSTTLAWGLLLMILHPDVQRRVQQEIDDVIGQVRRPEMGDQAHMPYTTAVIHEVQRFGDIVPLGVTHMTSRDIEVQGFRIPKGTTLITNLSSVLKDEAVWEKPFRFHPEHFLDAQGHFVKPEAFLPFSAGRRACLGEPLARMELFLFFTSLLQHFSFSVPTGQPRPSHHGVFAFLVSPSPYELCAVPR
# Melanin-concentrating hormone receptor 1, sequence (Q99705 whole entry): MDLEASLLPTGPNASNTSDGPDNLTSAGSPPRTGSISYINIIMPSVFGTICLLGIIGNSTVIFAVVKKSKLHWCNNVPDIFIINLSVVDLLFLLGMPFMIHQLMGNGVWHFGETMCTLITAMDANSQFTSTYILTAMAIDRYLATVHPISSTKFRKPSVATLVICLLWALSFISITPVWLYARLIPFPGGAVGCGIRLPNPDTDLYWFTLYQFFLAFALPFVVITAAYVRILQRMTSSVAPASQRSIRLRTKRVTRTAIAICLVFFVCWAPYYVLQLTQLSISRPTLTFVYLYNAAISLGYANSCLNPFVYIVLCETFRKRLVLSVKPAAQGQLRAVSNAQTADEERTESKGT
# Cytochrome P450 2C9, sequence (P11712 whole entry): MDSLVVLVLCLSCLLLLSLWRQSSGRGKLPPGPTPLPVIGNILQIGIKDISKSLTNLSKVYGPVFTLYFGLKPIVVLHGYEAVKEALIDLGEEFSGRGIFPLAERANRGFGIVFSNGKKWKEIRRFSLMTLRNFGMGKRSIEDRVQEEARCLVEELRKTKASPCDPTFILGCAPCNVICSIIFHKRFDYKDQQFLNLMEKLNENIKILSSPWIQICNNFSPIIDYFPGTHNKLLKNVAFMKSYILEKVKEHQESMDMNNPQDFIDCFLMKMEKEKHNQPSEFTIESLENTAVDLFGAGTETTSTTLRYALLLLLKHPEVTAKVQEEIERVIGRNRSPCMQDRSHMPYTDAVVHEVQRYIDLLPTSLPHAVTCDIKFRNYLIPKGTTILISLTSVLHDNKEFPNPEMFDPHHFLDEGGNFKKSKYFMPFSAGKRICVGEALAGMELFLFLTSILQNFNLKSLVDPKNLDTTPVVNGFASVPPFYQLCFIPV
# Peroxisome proliferator-activated receptor gamma/Nuclear receptor coactivator 3, sequence (P37231 whole entry): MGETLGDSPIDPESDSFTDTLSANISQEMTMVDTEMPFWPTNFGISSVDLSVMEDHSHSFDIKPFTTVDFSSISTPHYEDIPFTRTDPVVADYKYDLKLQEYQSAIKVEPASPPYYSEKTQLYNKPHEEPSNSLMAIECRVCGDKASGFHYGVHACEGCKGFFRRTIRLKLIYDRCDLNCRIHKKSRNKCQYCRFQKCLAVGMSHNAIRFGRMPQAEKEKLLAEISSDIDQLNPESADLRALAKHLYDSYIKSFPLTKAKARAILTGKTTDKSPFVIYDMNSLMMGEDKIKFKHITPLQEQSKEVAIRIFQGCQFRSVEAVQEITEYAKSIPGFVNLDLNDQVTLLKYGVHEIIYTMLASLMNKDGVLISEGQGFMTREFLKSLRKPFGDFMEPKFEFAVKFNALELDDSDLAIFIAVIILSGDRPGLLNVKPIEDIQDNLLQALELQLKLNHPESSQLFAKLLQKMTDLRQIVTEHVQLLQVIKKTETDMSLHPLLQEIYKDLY
# Peroxisome proliferator-activated receptor gamma/Nuclear receptor coactivator 3, sequence (Q9Y6Q9 whole entry, further chain): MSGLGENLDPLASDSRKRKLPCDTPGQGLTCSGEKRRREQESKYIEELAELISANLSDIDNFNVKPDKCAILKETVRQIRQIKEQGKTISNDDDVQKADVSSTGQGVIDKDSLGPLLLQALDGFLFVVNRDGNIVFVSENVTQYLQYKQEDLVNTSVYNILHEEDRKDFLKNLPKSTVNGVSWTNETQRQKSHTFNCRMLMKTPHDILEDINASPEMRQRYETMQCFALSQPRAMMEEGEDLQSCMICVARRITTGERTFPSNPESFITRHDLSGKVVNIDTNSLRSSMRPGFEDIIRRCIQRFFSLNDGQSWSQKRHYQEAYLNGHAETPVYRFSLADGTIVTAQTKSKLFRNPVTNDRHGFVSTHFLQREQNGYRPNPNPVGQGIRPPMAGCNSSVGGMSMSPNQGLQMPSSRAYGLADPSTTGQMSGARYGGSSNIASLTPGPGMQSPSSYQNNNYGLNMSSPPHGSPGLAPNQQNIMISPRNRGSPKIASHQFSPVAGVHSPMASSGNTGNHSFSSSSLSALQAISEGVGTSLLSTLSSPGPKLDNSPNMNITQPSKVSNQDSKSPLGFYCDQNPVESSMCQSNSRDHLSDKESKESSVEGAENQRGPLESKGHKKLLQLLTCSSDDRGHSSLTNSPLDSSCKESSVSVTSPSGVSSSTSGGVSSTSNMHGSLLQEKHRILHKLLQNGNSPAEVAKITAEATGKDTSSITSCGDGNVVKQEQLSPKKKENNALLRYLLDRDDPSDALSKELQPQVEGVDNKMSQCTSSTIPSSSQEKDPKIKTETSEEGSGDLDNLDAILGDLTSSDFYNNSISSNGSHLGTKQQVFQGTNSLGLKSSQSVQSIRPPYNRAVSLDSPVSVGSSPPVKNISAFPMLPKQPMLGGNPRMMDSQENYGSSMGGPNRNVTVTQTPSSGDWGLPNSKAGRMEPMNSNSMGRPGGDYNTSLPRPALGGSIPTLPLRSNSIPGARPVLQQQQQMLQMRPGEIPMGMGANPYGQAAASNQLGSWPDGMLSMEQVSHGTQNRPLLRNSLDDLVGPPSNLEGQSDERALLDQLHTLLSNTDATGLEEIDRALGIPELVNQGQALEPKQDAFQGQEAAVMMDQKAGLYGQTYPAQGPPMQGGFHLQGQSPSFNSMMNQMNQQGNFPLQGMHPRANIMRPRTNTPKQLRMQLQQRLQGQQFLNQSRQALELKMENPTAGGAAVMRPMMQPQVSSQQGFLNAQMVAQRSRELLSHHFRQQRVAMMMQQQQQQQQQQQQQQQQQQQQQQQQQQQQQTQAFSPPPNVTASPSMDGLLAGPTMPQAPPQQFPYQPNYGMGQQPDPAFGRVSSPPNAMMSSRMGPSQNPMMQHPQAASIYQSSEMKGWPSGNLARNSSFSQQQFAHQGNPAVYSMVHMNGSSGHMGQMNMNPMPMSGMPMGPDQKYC
smiles,measurement,setting,value
CC(C)[C@@]1(NC(=O)[C@@H]2C[C@H]3c4cccc5[nH]cc(c45)C[C@@H]3N(C)C2)O[C@@]2(O)[C@H]3CCCN3C(=O)[C@@H](Cc3ccccc3)N2C1=O,AC50,Cytochrome P450 2D6,31.6 µM (inconclusive)
COC(=O)NC(/C(C(=O)OC)=C(\C)NCc1ccccc1)c1ccc(Cl)cc1 (stereo not drawn),AC50,Cytochrome P450 2D6,5.01 µM (inconclusive)
same,AC50,Cytochrome P450 2C9,6.31 µM (inconclusive)
Cc1ccc(-c2nn(CCC(=O)O)cc2/C=C\C(=O)c2ccc(Br)cc2)cc1,EC50,Streptococcus [1],> 50 µM (not active)
same,EC50,Streptococcus [2],25.4 µM (active)
same,EC50,Streptokinase A,2.33 µM (active)
same,EC50,[3],4.41 µM (active)
same,IC50,Leucine aminopeptidase,34 µM (active)
COc1ccccc1N(C(=O)c1ccco1)C(C(=O)NC1CCCCC1)c1cc(OC)c(OC)c(OC)c1 (stereo not drawn),IC50,[4],> 43.8 µM (not active)
same,IC50,[5],> 43.8 µM (not active)
S=C(NCc1ccc(Cl)cc1Cl)Nc1ccccc1,EC50,[6],67.3 µM (not active)
same,EC50,[7],> 79.4 µM (not active)
same,EC50,[8],> 79.4 µM (not active)
